A short description of data set [1]: Cytotoxicity in MT-4 cells incubated without infection by HIV. In kind it is cell-based. Conditions: human; MT-4 cells without infection by HIV, 37° C., 5 days, MTT method; read-out: CC50 (compound concentration which causes death of 50% of the MT-4 cells). On the procedure:
(§1) Virucidal test aqainst HIV:
(§2) In RPMI1640 culture medium containing 20 mM HEPES buffer solution, 10% bovine fetus serum, and 20 μg/mL gentamycin, 3×10^4 cells of MT-4 (which will be killed by infection with HIV) were infected with HIV at a rate of 0.02 HIV per cell. To the fractions of the culture, predetermined portions of a sample containing the thiadiazole derivative of the compound No. shown in Table 27 and 28 were added, and the culture fractions were incubated at 37° C. After incubation for 5 days, living cells were measured by the MTT method to derive the compound concentration (EC50) which is effective to protects 50% of the MT-4 cells from death by HIV. Separately, the MT-4 cells were incubated in the same manner without infection by HIV, and the compound concentration (CC50) which causes death of 50% of the MT-4 cells. The ratio of CC50 /EC50 is the selectivity index (S.I.).
In general terms: Tetrazolium dyes change colour on reduction, which living cells bring about.

Data set [2] has as its system HIV. Put plainly: Virucidal test against HIV (protection of HIV-infected MT-4 cells, MTT method). In kind it is cell-based. As to conditions: for S.I. (selectivity index, ratio CC50/EC50): CC50/EC50, MT-4 cells; for EC50: Human immunodeficiency virus 1, MT4, 120 h, read-out: EC50 (compound concentration effective to protect 50% of the MT-4 cells from death by HIV). As for the experimental part: as §1, §2

[3] abbreviates: MT-4 cells, 0.02 HIV per cell, 37° C., 5 days, MTT method.

30 compounds from US5948916A, “Arylthiadiazole derivative and antiviral agent containing the same” (priority 1994, dated 1999) can be followed below.

In brackets after ≈: the same amount, converted by molar mass. Like-named read-outs stand apart in the source and are kept apart here.

`CN(C)C(=O)Oc1nsnc1-c1cc(N)ccc1Cl` [Compound 21, N,N-Dimethyl [3-(5-amino-2-chlorophenyl)-1,2,5-thiadiazol-4-yl] CARBAMATE]: the CC50 at 120 h in data set [1] was found to be 36 µg/mL (≈ 121 µM). In data set [2], the “S.I. (selectivity index, ratio CC50/EC50)” value is reported as 240 and the EC50 is 0.15 µg/mL (≈ 0.502 µM).
Take `CCCN(C)C(=O)Oc1nsnc1-c1cc(N)ccc1Cl` [Compound 22, N-Methyl-N-propyl [3-(5-amino-2-chlorophenyl)-1,2,5-thiadiazol-4-yl] carbamate]: the CC50 at 120 h in data set [1] stood at 22 µg/mL (≈ 67.3 µM). Also, in data set [2], the “S.I. (selectivity index, ratio CC50/EC50)” value was found to be 1048 and the EC50 worked out at 0.021 µg/mL (≈ 0.0643 µM).
The matching figures for `CN(C)C(=O)Oc1nsnc1-c1c(Cl)ccc(N)c1Cl` [Compound 70, N,N-dimethyl [3-(3-amino-2,6-dichlorophenyl)-1,2,5-thiadiazol-4-yl] carbamate]: 9.4 µg/mL (≈ 28.2 µM), 362 and 0.026 µg/mL (≈ 0.078 µM).
On the same counts, the results for `CCCN(C)C(=O)Oc1nsnc1-c1c(Cl)ccc(N)c1Cl` [Compound 71, N-Methyl-N-propyl [3-(3-amino-2,6-dichlorophenyl)-1,2,5-thiadiazol-4-yl] carbamate] are 4.7 µg/mL (≈ 13 µM), 2350 and 0.002 µg/mL (≈ 0.00554 µM).
On to `CCCN(C)C(=O)Oc1nsnc1-c1c(Cl)ccc(C#N)c1Cl` [Compound 87, N-Methyl-N-propyl [3-(2,6-dichloro-3-cyanophenyl)-1,2,5-thiadiazol-4-yl] carbamate], for which the CC50 at 120 h in data set [1] came to 23 µg/mL (≈ 62 µM). Moreover, in data set [2], the “S.I. (selectivity index, ratio CC50/EC50)” value is recorded as 7667 and the EC50 was determined as 0.003 µg/mL (≈ 0.00808 µM).
For `CCCN(C)C(=O)Oc1nsnc1-c1c(Cl)ccc(C(=O)OC)c1Cl` [Compound 91, N-Methyl-N-propyl [3-(2,6-dichloro-3-methoxycarbonylphenyl)-1,2,5-thiadiazol-4-yl] carbamate], in data set [1], the CC50 at 120 h was 9.1 µg/mL (≈ 22.5 µM). In data set [2], the “S.I. (selectivity index, ratio CC50/EC50)” value amounted to 144 and the EC50 came to 0.063 µg/mL (≈ 0.156 µM).
For the compound `CCCN(C)C(=O)Oc1nsnc1-c1c(Cl)ccc(C(N)=O)c1Cl` [Compound 93, N-methyl-N-propyl [3-(3-carbamoyl-2,6-dichlorophenyl)-1,2,5-thiadiazol-4-yl] carbamate], the CC50 at 120 h in data set [1] was determined as 65 µg/mL (≈ 167 µM). For the same compound, in data set [2], the “S.I. (selectivity index, ratio CC50/EC50)” value amounted to 59 and the EC50 came out at 1.1 µg/mL (≈ 2.83 µM).
For the compound `CCCN(C)C(=O)Oc1nsnc1-c1c(F)ccc(N)c1Cl` [Compound 99, N-Methyl-N-propyl [3-(3-amino-2-chloro-6-fluorophenyl)-1,2,5-thiadiazole-4-yl] carbamate], the CC50 at 120 h in data set [1] is 22 µg/mL (≈ 63.8 µM). Moreover, in data set [2], the “S.I. (selectivity index, ratio CC50/EC50)” value worked out at 2750 and the EC50 amounted to 0.008 µg/mL (≈ 0.0232 µM).
In the case of `CN(C)C=Nc1nsnc1-c1c(Cl)cccc1Cl` [Compound 127, N^1 -Dimethyl-N^2-[3-(2,6-dichlorophenyl)-1,2,5-thiadiazol-4-yl] formamidine], the CC50 at 120 h in data set [1] stood at 31 µg/mL (≈ 103 µM). For the same compound, in data set [2], the “S.I. (selectivity index, ratio CC50/EC50)” value came to 21. Moreover, the EC50 in data set [2] (setting [3]) stood at 1.5 µg/mL (≈ 4.98 µM).
As to `CCCN(C)C=Nc1nsnc1-c1c(Cl)cccc1Cl` [Compound 128, N^1-methyl-N^1-propyl-N^2-[3-(2,6-dichlorophenyl)-1,2,5-thiadiazol-4-yl]formamidine], in data set [1], the CC50 at 120 h is 9.2 µg/mL (≈ 27.9 µM). The “S.I. (selectivity index, ratio CC50/EC50)” value in data set [2] was 48. In data set [2] (setting [3]), the EC50 stood at 0.19 µg/mL (≈ 0.577 µM).
Consider `CCN(C=Nc1nsnc1-c1c(Cl)cccc1Cl)CC` [Compound 130, N^1-diethyl-N^2 - [3-(2,6-dichlorophenyl)-1,2,5-thiadiazol-4-yl]formamidine], for which the CC50 at 120 h in data set [1] was 14 µg/mL (≈ 42.5 µM). In addition, the “S.I. (selectivity index, ratio CC50/EC50)” value in data set [2] is 1000. Besides, the EC50 in data set [2] (setting [3]) came to 0.014 µg/mL (≈ 0.0425 µM).
On the same counts, the results for `CCN(CC)C(C)=Nc1nsnc1-c1c(Cl)cccc1Cl` [Compound 131, N^1-diethyl-N^2-[3-(2,6-dichlorophenyl)-1,2,5-thiadiazol-4-yl]acetamidine] are 5.4 µg/mL (≈ 15.7 µM), 19 and 0.29 µg/mL (≈ 0.845 µM).
For `CN(C)S(=O)(=O)Oc1nsnc1-c1c(Cl)cccc1Cl` [Compound 138], the CC50 at 120 h in data set [1] was 9.9 µg/mL (≈ 27.9 µM). In addition, the “S.I. (selectivity index, ratio CC50/EC50)” value in data set [2] turned out to be 9. Besides, the EC50 in data set [2] (setting [3]) amounted to 1.1 µg/mL (≈ 3.11 µM).
`Clc1cccc(Cl)c1-c1nsnc1OCc1ccccn1` [Compound 145]: the CC50 at 120 h in data set [1] was determined as 2.7 µg/mL (≈ 7.98 µM). In addition, in data set [2], the “S.I. (selectivity index, ratio CC50/EC50)” value is recorded as 39. The EC50 in data set [2] (setting [3]) came to 0.07 µg/mL (≈ 0.207 µM).
For the compound `Clc1cccc(Cl)c1-c1nsnc1OCc1cccnc1` [Compound 146], the CC50 at 120 h in data set [1] is 1.9 µg/mL (≈ 5.62 µM). Further, the “S.I. (selectivity index, ratio CC50/EC50)” value in data set [2] was 6. Also, the EC50 in data set [2] (setting [3]) amounted to 0.3 µg/mL (≈ 0.887 µM).
Consider `O=[N+]([O-])c1ccccc1COc1nsnc1-c1c(Cl)cccc1Cl` [Compound 149], for which the CC50 at 120 h in data set [1] is 8.6 µg/mL (≈ 22.5 µM). Besides, the “S.I. (selectivity index, ratio CC50/EC50)” value in data set [2] is on record as 5. The EC50 in data set [2] (setting [3]) came to 1.7 µg/mL (≈ 4.45 µM).
The matching figures for `CSCOc1nsnc1-c1c(Cl)cccc1Cl` [Compound 155]: > 100 µg/mL, > 270 and 0.37 µg/mL (≈ 1.2 µM).
As to `COCOc1nsnc1-c1c(Cl)cccc1Cl` [Compound 156], in data set [1], the CC50 at 120 h turned out to be 43 µg/mL (≈ 148 µM). In addition, the “S.I. (selectivity index, ratio CC50/EC50)” value in data set [2] worked out at 24. In data set [2] (setting [3]), the EC50 was 1.8 µg/mL (≈ 6.18 µM).
Consider `COCCOCOc1nsnc1-c1c(Cl)cccc1Cl` [Compound 157], for which the CC50 at 120 h in data set [1] came out at 46 µg/mL (≈ 137 µM). For the same compound, in data set [2], the “S.I. (selectivity index, ratio CC50/EC50)” value is listed as 128. For the same compound, the EC50 in data set [2] (setting [3]) was found to be 0.36 µg/mL (≈ 1.07 µM).
As to `COCCOc1nsnc1-c1c(Cl)cccc1Cl` [Compound 159], the CC50 at 120 h in data set [1] was determined as 11 µg/mL (≈ 36 µM). In addition, in data set [2], the “S.I. (selectivity index, ratio CC50/EC50)” value was 5. The EC50 in data set [2] (setting [3]) stood at 2.2 µg/mL (≈ 7.21 µM).
`Clc1cccc(Cl)c1-c1nsnc1OCCBr` [Compound 160, 3-(2-bromoethoxy)-4-(2,6-dichlorophenyl)-1,2,5-thiadiazole]: the CC50 at 120 h in data set [1] was 4.8 µg/mL (≈ 13.6 µM). Moreover, the “S.I. (selectivity index, ratio CC50/EC50)” value in data set [2] is listed as 15. Further, the EC50 in data set [2] (setting [3]) came out at 0.32 µg/mL (≈ 0.904 µM).
On to `CCCN(C)CCOc1nsnc1-c1c(Cl)cccc1Cl` [Compound 161, 3-(2,6-dichlorophenyl)-4-[2-(N-methyl-N-propylamino)ethoxy]-1,2,5-thiadiazole], for which, in data set [1], the CC50 at 120 h is 8.3 µg/mL (≈ 24 µM). Besides, in data set [2], the “S.I. (selectivity index, ratio CC50/EC50)” value is given as 10. The EC50 in data set [2] (setting [3]) stood at 0.8 µg/mL (≈ 2.31 µM).
The matching figures for `CCCN(C)C(=O)c1nsnc1-c1ccccc1Cl` [Compound 195, N-methyl-N-propyl 4-(2-chlorophenyl)-1,2,5-thiadiazole-3-carboxamide]: 37 µg/mL (≈ 125 µM), 25 and 1.5 µg/mL (≈ 5.07 µM).
`CCCN(C)C(=O)Cc1nsnc1-c1ccccc1Cl` [Compound 202, N-methyl-N-propyl [3-(2-chlorophenyl)-1,2,5-thiadiazol-4-yl]acetamide]: the CC50 at 120 h in data set [1] is 18 µg/mL (≈ 58.1 µM). Also, the “S.I. (selectivity index, ratio CC50/EC50)” value in data set [2] was determined as 7. Moreover, in data set [2] (setting [3]), the EC50 turned out to be 2.5 µg/mL (≈ 8.07 µM).
In the case of `CN(CC#N)C(=O)Oc1nsnc1-c1c(Cl)cccc1Cl` [Compound 218, N-(cyanomethyl)-N-methyl [3-(2,6-dichlorophenvl)-1,2,5-thiadiazol-4-yl] carbamate], the CC50 at 120 h in data set [1] stood at 64 µg/mL (≈ 186 µM). Also, in data set [2], the “S.I. (selectivity index, ratio CC50/EC50)” value amounted to 168 and the EC50 stood at 0.38 µg/mL (≈ 1.11 µM).
On the same counts, the results for `CN(CCC#N)C(=O)Oc1nsnc1-c1c(Cl)cccc1Cl` [Compound 219, N-(2-cyanoethyl)-N-methyl [3-(2,6-dichlorophenyli-1,2,5-thiadiazol-4-yl] carbamate] are 46 µg/mL (≈ 129 µM), 2556 and 0.018 µg/mL (≈ 0.0504 µM).
As to `CN(CCO)C(=O)Oc1nsnc1-c1c(Cl)cccc1Cl` [Compound 220, N-(2-Hydroxyethyl)-N-methyl [3-(2,6-dichlorophenyl)-1,2,5-thiadiazol-4-yl] carbamate], the CC50 at 120 h in data set [1] was 63 µg/mL (≈ 181 µM). Further, in data set [2], the “S.I. (selectivity index, ratio CC50/EC50)” value was found to be 18 and the EC50 stood at 3.5 µg/mL (≈ 10.1 µM).
The matching figures for `CN(CCCC(=O)O)C(=O)Oc1nsnc1-c1c(Cl)cccc1Cl` [Compound 222, N-(3-carboxypropyl)-N-methyl [3-(2,6-dichlorophenyl)-1,2,5-thiadiazol-4-yl] carbamate]: > 100 µg/mL, > 71 and 1.4 µg/mL (≈ 3.59 µM).
Turning to `CN(CCC(N)=O)C(=O)Oc1nsnc1-c1c(Cl)cccc1Cl` [Compound 223, N-(2-carbamoylethyl)-N-methyl [3-(2,6-dichlorophenyl)-1,2,5-thiadiazol-4-yl] carbamate], in data set [1], the CC50 at 120 h was > 100 µg/mL. Also, in data set [2], the “S.I. (selectivity index, ratio CC50/EC50)” value is on record as > 38 and the EC50 was 2.6 µg/mL (≈ 6.93 µM).
For `CCOC(=O)CCN(C)C(=O)Oc1nsnc1-c1c(Cl)cccc1Cl` [Compound 224, N-[2-(ethoxycarbonyl)ethyl]-N-methyl [3-(2,6-dichlorophenyl)-1,2,5-thiadiazol-4-yl] carbamate], in data set [1], the CC50 at 120 h is 50 µg/mL (≈ 124 µM). In data set [2], the “S.I. (selectivity index, ratio CC50/EC50)” value was found to be 385 and the EC50 was 0.13 µg/mL (≈ 0.322 µM).
